# ChEMBL document CHEMBL2095176, “GSK Tuberculosis Screening Data”
# Columns and labels:
# physchem [1] = conditions: buffer, pH 7.4
# Description: GSK_TB: GSK in-house hydrophobicity assay at pH7.4 (logD)
# physchem [2] = conditions: octanol/water
# Description: GSK_TB: GSK in-house hydrophobicity assay (logP)
# physchem [3] = conditions: phosphate buffered saline, pH 7.4
# [4] = system: Mycobacterium tuberculosis H37Rv; test: microbe, parasite or virus in culture
# Description: GSK_TB: Intracellular minimum inhibitory concentration (MIC) H37Rv assay
Structure (SMILES),logD (physchem [1]),logP (physchem [2]),solubility kinetic (physchem [3]) [µM],MIC90 [4] [µM]
N#Cc1nc(-c2ccccc2F)oc1NCCc1ccccc1,6.37,6.63,3,2.79
Cc1ccc(C(=O)Nc2nc(-c3ccccn3)cs2)s1,4.6,4.61,15,8.41
CCOC(=O)c1cc(-c2csc(Nc3c(C)cc(C)cc3C)n2)on1,7.12,7.45,1,4.07
O=C(c1cnn(C(=O)c2ccco2)c1)c1cc(F)ccc1O,–,–,1,9.55
CC(Oc1ccccc1)C(=O)Nc1nc(-c2ccccn2)cs1 (configuration not stated),5.07,5.06,174,9.77
c1ccc(-c2nc(N3CCCCCC3)nc(-n3ccnc3)n2)cc1,–,–,1,7.41
CNc1nc(SC)nc2ccccc12,–,–,–,0.2
Cc1nnc(NCc2cccc(Cl)c2)c2ccccc12,4.32,4.52,127,5.9
O=C(NC1=NCCS1)c1sc2cc(F)ccc2c1Cl,5.16,5.49,1,8.61
CCc1nnc(NC(=O)c2cccc(C(=O)Nc3nnc(CC)s3)n2)s1,–,–,26,8
COc1ccc(-c2cc(=O)c3cc(OCC(=O)OC(C)C)ccc3o2)cc1,5.91,6.29,–,2.95
O=C(Nc1nnc(-c2ccc(Cl)cc2)o1)c1cccc(C(F)(F)F)c1,4.51,6.29,1,5.62
O=C(Cc1ccc(F)cc1)Nc1nc(-c2ccccn2)cs1,4.32,4.33,14,9.3
COc1ccc(-c2cncc(-c3cc(N4CCN(CCO)CC4)nc(-c4ccccc4)n3)c2)cc1,5.91,6.34,1,1.45
O=C(O)C(F)(F)F.c1ccc(C[C@H]2CN(c3nccc(Oc4ccc(-n5ccnc5)cc4)n3)CCN2)cc1,3.58,4.33,260,1.8
Br.Cc1cc(C)cc(OCCCON2C(=N)N=C(N)NC2(C)C)c1,3.2,4.72,358,5.31
Cc1ccc(C2CC(C(F)(F)F)n3ncc(C(=O)NCc4ccc5c(c4)OCO5)c3N2)cc1 (configuration not stated),–,–,–,5.4
c1ccc(CCNc2cc(-c3ccccc3)nc3nncn23)cc1,4.97,5.13,6,5.5
O=C(O)C(F)(F)F.c1ccc2c(-c3ccc(CNCC4CCNC4)cc3)cncc2c1 (configuration not stated),1.52,3.02,61,5.56
Cc1cnc(N2CCN[C@@H](Cc3ccccc3)C2)nc1Oc1ccc(-n2ccnc2)cc1.O=C(O)C(F)(F)F,4.04,5.03,228,9.23
COc1ccc2cc(C(=O)Nc3ccc(C4CCN(C)CC4)cc3)sc2c1,3.11,5.93,62,9.55
Cc1ccc2nc(C)c(C(=O)NCc3cccs3)n2c1,–,–,–,0.2
Nc1cccnc1Nc1ccc(Cl)cc1,–,–,94,0.232
COc1ccc2nc(C)cc(OCC(=O)Nc3cc(C)cc(C)c3)c2c1,–,–,–,0.3

Structure (SMILES),logD (physchem [1]),logP (physchem [2]),solubility kinetic (physchem [3]) [µM],MIC90 [4] [µM]
Cc1cccc(-c2nc(Nc3ccncn3)c3c(C)csc3n2)n1,–,–,–,0.3
Nc1nc2cc(-c3cncc(Oc4ccc(F)cc4)c3)ccc2[nH]1.O=C(O)C(F)(F)F.O=C(O)C(F)(F)F,3.11,3.12,100,0.347
COc1ccc2nc(C)cc(OCC(=O)Nc3ccccc3OC)c2c1,–,–,–,0.4
Cc1cc(/C=C/c2cccc(C(=O)O)c2)cc(Cl)c1OC[C@@H]1CCCN1C,–,–,486,0.457
Cc1ccccc1CN1CCC(O)(c2ccc(Cl)c(C(F)(F)F)c2)CC1,–,–,77,4.2
N=C(N)c1ccc(CCN2CCC(c3nc(COCC(F)(F)F)c(-c4ccc(F)cc4)o3)CC2)cc1.O=C(O)C(F)(F)F.O=C(O)C(F)(F)F,3.76,6.14,255,6.17
Nc1ccccc1Nc1ccc2c(c1)OCO2,–,–,139,1.82
Nc1cccnc1Nc1ccc(C(F)(F)F)cc1,4.97,5.03,328,2.24
COc1cccc(-c2nc3c(N4CCCC4)cccc3n2CC2CCCN2)n1.O=C(O)C(F)(F)F (configuration not stated),–,–,78,9.77
Cn1c(=O)c2c([S+](C)[O-])snc2n(C)c1=O (configuration not stated),1.24,1.24,420,9.77
Cc1cc(OCC(=O)NCc2ccccc2)c2cc(Br)ccc2n1,4.97,5.13,15,2.3
c1ccc(SCc2nn3c(-c4ccccc4)nnc3s2)cc1,5.44,5.78,1,2.69
Cc1cccc(-c2nc(Nc3ccncn3)c3sccc3n2)n1,–,–,–,0.5
CCc1ccc(CN2CCC3(CC2)OCCc2sccc23)s1,–,–,–,1
c1cc2c(s1)CCOC21CCN(Cc2ccc3c(c2)OCCO3)CC1,–,–,–,1
O=C(NC12CC3CC(CC(C3)C1)C2)c1cc2cc(Cl)ccc2[nH]1,–,–,–,1
COc1ccc(Nc2ccccc2NC(=O)c2ccc(O)nc2)cc1,2.92,2.97,362,7.08
Cc1ccc(CNC(=O)c2cnn3c2NC(c2ccc(C)cc2)CC3C(F)F)cc1 (configuration not stated),6.84,7.09,1,1.23
CCCCS(=O)(=O)Nc1ccc2cnn(C)c2c1,3.48,3.58,552,1.3
O=C(NC(Cc1ccccc1)C(=O)Nc1ccccc1N1CCOCC1)c1cccs1 (configuration not stated),5.53,5.78,64,7.6
O=C(Nc1nnc(-c2ccc(Cl)s2)o1)c1ccc(Cl)s1,–,–,–,7.76
CCCOC(=O)COc1ccc2c(=O)c(-c3ccccc3OC)coc2c1,6,6.24,–,7.94
CCc1ccc(C2CC(C(F)(F)F)n3ncc(C(=O)NCc4cccs4)c3N2)cc1 (configuration not stated),6.99,7.27,1,4.37
O=C(c1[nH]nc2c1CCCC2)N1CCN(Cc2ccc3c(c2)OCO3)CC1,–,–,–,4.5

Structure (SMILES),logD (physchem [1]),logP (physchem [2]),solubility kinetic (physchem [3]) [µM],MIC90 [4] [µM]
c1ncn(-c2ccc(COc3ccc(-n4cncn4)cc3)cc2)n1,–,–,–,4.73
NC(=O)c1cc(-c2ccsc2)ccc1OCCOc1ccccc1,5.44,5.78,1,3.5
Br.CC1(C)NC(N)=NC(=N)N1OCCCOc1ccc(Cl)cc1Cl,3.39,4.83,337,3.55
O=C(OCc1c(F)cccc1Cl)c1ccc(-n2ncc(Cl)c(Cl)c2=O)cc1,–,–,22,4.9
CCc1ccc([C@@H]2C[C@H](C(F)(F)F)n3ncc(C(=O)NCc4ccc(OC)cc4)c3N2)cc1,–,–,–,4.9
Fc1ccccc1-c1noc(N2CCN(Cc3ccc4c(c3)OCO4)CC2)n1,6.56,6.94,10,5.2
CCn1c(=O)c(=O)[nH]c2cc(C(=O)Nc3ccccc3Nc3ccc(OC)cc3)ccc21,3.67,3.87,47,8.4
O=C(CCSc1ccc(Cl)cc1)Nc1nc(-c2ccccn2)cs1,–,–,–,8.41
O=C(C=Cc1ccccc1)N1CCN(Cc2ccc3c(c2)OCO3)CC1,5.16,5.44,–,3.7
Cc1cc(CN2CCC3(CC2)OCCc2sccc23)oc1C,–,–,289,3.7
CSc1cccc(C(=O)Nc2nc(-c3ccccn3)cs2)c1,5.25,5.26,12,3.72
CSc1ccc(C(=O)Nc2nc(-c3ccccn3)cs2)cc1,5.07,5.06,–,8.71
COc1ccc(CCNc2cc(-c3ccccc3)nc3ncnn23)cc1,–,–,–,0.6
Br.CCc1ccccc1OCCCON1C(=N)N=C(N)NC1(C)C,3.3,4.83,225,3.2
Br.CC1(C)N=C(N)N=C(N)N1OCCc1ccc2ccccc2c1,2.92,4.23,201,2.32
Br.CCCc1cc(C(C)=O)ccc1OCCCON1C(=N)N=C(N)NC1(C)C,2.92,4.02,201,2.34
Cc1cc(NCCc2ccccc2)nc(NC(=N)Nc2ccc(Cl)cc2)n1,4,6.74,73,2.37
Br.Cc1ccccc1OCCCON1C(=N)N=C(N)NC1(C)C,2.83,3.92,436,3.76
c1cncc(NCc2ccc(-c3cc4ccncc4cc3OC3CCNCC3)s2)c1,1.9,4.23,167,8.61
Clc1ccc(Nc2nc(-c3ccccn3)cs2)nc1,5.35,6.53,–,5.9
Cc1csc2nc(-c3ccccn3)nc(Nc3ccncn3)c12.O=C(O)C(F)(F)F,–,–,231,1.7
Br.CC(C)(C)c1ccccc1OCCCON1C(=N)N=C(N)NC1(C)C,4.04,6.14,363,2.3
CSc1ccccc1C(=O)Nc1nc(-c2ccccn2)cs1,–,–,–,1.74
Cn1cc(NC(=O)c2cc(NC(=O)CNC(=N)N)cn2C)cc1C(=O)NCCC(=N)N [NETROPSIN CHLORIDE],–,–,–,6.46
